Reference: BindingDB's records for patent US8680132 (University of Michigan, 2014)

Molecular target: E3 ubiquitin-protein ligase Mdm2 (Homo sapiens, UniProt Q00987)
Assay: Fluorescence-polarization Binding Assay
Conditions: pH 7.5

Sequence of E3 ubiquitin-protein ligase Mdm2 (Q00987 whole entry): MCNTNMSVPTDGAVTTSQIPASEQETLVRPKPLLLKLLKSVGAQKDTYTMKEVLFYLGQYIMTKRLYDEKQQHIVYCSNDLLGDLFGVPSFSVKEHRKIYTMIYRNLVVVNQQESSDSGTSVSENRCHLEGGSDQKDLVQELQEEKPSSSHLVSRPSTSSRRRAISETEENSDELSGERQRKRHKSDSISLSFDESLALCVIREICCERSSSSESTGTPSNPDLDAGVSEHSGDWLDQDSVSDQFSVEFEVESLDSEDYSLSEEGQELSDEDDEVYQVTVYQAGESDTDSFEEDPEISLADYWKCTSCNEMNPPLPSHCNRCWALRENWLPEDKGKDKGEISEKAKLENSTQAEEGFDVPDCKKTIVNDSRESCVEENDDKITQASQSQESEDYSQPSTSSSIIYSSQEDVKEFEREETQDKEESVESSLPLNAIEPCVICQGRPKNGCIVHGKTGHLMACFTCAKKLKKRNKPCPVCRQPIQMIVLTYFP

**Q.** Which IC50 does the source give for `O=C(NCC[C@H](O)CO)[C@@H]1N[C@H](CC2CCCCC2)[C@]2(C(=O)Nc3cc(Cl)c(F)cc32)[C@H]1c1cccc(Cl)c1` here?
**A.** The IC50 was under 1 µM.
